Values quoted from earlier work in PubChem BioAssay AID1259409 (Chemical Carcinogenesis Research Information System (CCRIS), 2018).
Several values for one entry are separate records, joined by “and”; a condition that tells them apart may be missing. Identical values can stand only once.

Tested on: rodent chemically induced tumor inhibition, incidence and multiplicity
Experiment: CCRIS tumor inhibitor studies

Compound: CC(Cc1ccc(O)c(O)c1)C(C)Cc1ccc(O)c(O)c1 (stereo not drawn)
- tumour outcome (control, treated, inhibition, significance) (Carcinogen: 7,12-DIMETHYLBENZ[A]ANTHRACENE, 57-97-6, Dose [Inhibitor]: 0, 10 UMOL IN 0.2 ML ACETONE 1/D FOR 7 D BEGINNING 7 D PRIOR TO CARCINOGEN DOSE (STUDY DURATION: 17 WK), Route [Inhibitor]: DERMAL, Species: RAT, Strain/Sex: SENCAR/FEMALE, Target Tissue: Type of Lesion: SKIN: TUMOR, Dose [Carcinogen]: 40 NMOL IN 0.2 ML ACETONE ONCE, Promoter: 12-0-TETRADECANOYLPHORBOL-13-ACETATE, 16561-29-8): 100%, 100%, 0%, not significant
- tumour outcome (control, treated, inhibition, significance) (Carcinogen: 7,12-DIMETHYLBENZ[A]ANTHRACENE, 57-97-6, Dose [Inhibitor]: 0, 10 UMOL IN 0.2 ML ACETONE 2/WK FOR 16 WK APPLIED 30 MIN PRIOR TO PROMOTER DOSES (STUDY DURATION: 17 WK), Route [Inhibitor]: DERMAL, Species: RAT, Strain/Sex: SENCAR/FEMALE, Target Tissue: Type of Lesion: SKIN: TUMOR, Dose [Carcinogen]: 40 NMOL IN 0.2 ML ACETONE ONCE, Promoter: 12-0-TETRADECANOYLPHORBOL-13-ACETATE, 16561-29-8): 100%, 85%, 15%, not calculated
- tumour outcome (control, treated, inhibition, significance) (Carcinogen: 7,12-DIMETHYLBENZ[A]ANTHRACENE, 57-97-6, Dose [Inhibitor]: 30 UMOL APPLIED 30-40 MIN BEFORE EACH TPA TREATMENT AND CONCURRENTLY WITH TPA (STUDY DURATION: 18 WK), Route [Inhibitor]: DERMAL, Species: MOUSE, Strain/Sex: CD-1/FEMALE, Target Tissue: Type of Lesion: SKIN: PAPILLOMA, Dose [Carcinogen]: 200 NMOL ONCE, Promoter: 12-O-TETRADECANOYLPHORBOL-13-ACETATE, 16561-29-8): 96%, 50%, 48%, not calculated
- tumour outcome (control, treated, inhibition, significance) (Carcinogen: DIETHYLNITROSAMINE, 55-18-5, Dose [Inhibitor]: 0, 1 MG/D IN 0.2 ML CORN OIL 3/WK FOR 16 WKS BEGINNING POST CARCINOGEN DOSE (STUDY DURATION: 24 WKS), Route [Inhibitor]: GAVAGE, Species: MOUSE, Strain/Sex: SWISS/MALE, Target Tissue: Type of Lesion: KIDNEY: RENAL CELL TUMOR, Dose [Carcinogen]: 100 MG/KG BW IN SALINE ONCE, Promoter: FERRIC NITRILOTRIACETATE, 16448-54-7): 68%, 20%, 71%, not calculated
- tumour outcome (control, treated, inhibition, significance) (Carcinogen: DIETHYLNITROSAMINE, 55-18-5, Dose [Inhibitor]: 0, 2 MG/D IN 0.2 ML CORN OIL 3/WK FOR 16 WK BEGINNING POST CARCINOGEN DOSE (STUDY DURATION:24 WKS), Route [Inhibitor]: GAVAGE, Species: MOUSE, Strain/Sex: SWISS/MALE, Target Tissue: Type of Lesion: KIDNEY: RENAL CELL TUMOR, Dose [Carcinogen]: 100 MG/KG BW IN SALINE ONCE, Promoter: FERRIC NITRILOTRIACETATE, 16448-54-7): 68%, 16%, 76%, not calculated
- tumour outcome (control, treated, inhibition, significance) (Carcinogen: N-BUTYL-N-(4-HYDROXYBUTYL)NITROSAMINE, 3817-11-6, Dose [Inhibitor]: 0, 0.1% IN DIET CONCURRENT WITH PROMOTER BEGINNING POST CARCINOGEN TREATMENT AND CONTINUING FOR 36 WK (STUDY DURATION: 4, Route [Inhibitor]: ORAL, Species: RAT, Strain/Sex: F344/MALE, Target Tissue: Type of Lesion: URINARY BLADDER: CARCINOMA, Dose [Carcinogen]: 0.05% IN DRINKING WATER FOR 4 WK, Promoter: SODIUM SACCHARIN, 128-44-9): 2/23 (9%), 1/22 (5%), 44%, not significant
- tumour outcome (control, treated, inhibition, significance) (Carcinogen: N-BUTYL-N-(4-HYDROXYBUTYL)NITROSAMINE, 3817-11-6, Dose [Inhibitor]: 0, 0.1% IN DIET CONCURRENT WITH PROMOTER BEGINNING POST CARCINOGEN TREATMENT AND CONTINUING FOR 36 WK (STUDY DURATION: 4, Route [Inhibitor]: ORAL, Species: RAT, Strain/Sex: F344/MALE, Target Tissue: Type of Lesion: URINARY BLADDER: PAPILLOMA, Dose [Carcinogen]: 0.05% IN DRINKING WATER FOR 4 WK, Promoter: SODIUM SACCHARIN, 128-44-9): 5/23 (22%), 0/22 (0%), 100%, p<0.05

Compound: CCC(C)SSC(C)CC (stereo not drawn)
- tumour outcome (control, treated, inhibition, significance) (Carcinogen: BENZO[A]PYENE, 50-32-8, Dose [Inhibitor]: 0.06 MMOL/G DIET DAILY FOR 6 WK CONCURRENT WITH CARCINOGEN TREATMENT FOLLOWED BY 14 WK ON STANDARD DIET (STUDY DURATION:, Route [Inhibitor]: ORAL, Species: MOUSE, Strain/Sex: ICR/FEMALE, Target Tissue: Type of Lesion: FORESTOMACH: NEOPLASM, Dose [Carcinogen]: 0.3 MG/G IN DIET DAILY FOR 6 WK, Promoter: NONE USED): 40%, 41%, -3%, not significant

Compound: CC(=O)O[C@H]1CC[C@@]2(C)C(=CC[C@@H]3[C@@H]2CC[C@]2(C)C(=O)CC[C@@H]32)C1
- tumour outcome (control, treated, inhibition, significance) (Carcinogen: 7,12-DIMETHYLBENZ[A]ANTHRACENE, 57-97-6, Dose [Inhibitor]: 0, 5 MG/100 G BW 1/WK FOR 150 D BEGINNING POST CARCINOGEN TREATMENT (STUDY DURATION: 150 D), Route [Inhibitor]: SUBCUTANEOUS, Species: RAT, Strain/Sex: WISTAR/FEMALE, Target Tissue: Type of Lesion: MAMMARY GLAND: ADENOCARCINOMA, Dose [Carcinogen]: 4 MG IN 0.1 ML OF SESAME OIL INJECTED ONCE INTO THE EXPOSED MAMMARY TISSUE OF HYPERPROLACTINEMIC RATS ON DAY 73 OF AGE, Promoter: NONE USED): 8/11 (73%), 0/10 (0%), 100%, p<0.01

Compound: O=c1c(O)c(-c2ccc(O)cc2O)oc2cc(O)cc(O)c12
- tumour outcome (control, treated, inhibition, significance) (Carcinogen: 4-NITROQUINOLINE-1-OXIDE [56-57-5], Dose [Inhibitor]: 100 PPM IN DIET FOR 10 WK BEGINNING 1 WK PRIOR TO FIRST CARCINOGEN DOSE (STUDY DURATION: 32 WK), Route [Inhibitor]: ORAL, Species: RAT, Strain/Sex: F344/MALE, Target Tissue: Type of Lesion: TONGUE: SQUAMOUS CELL PAPILLOMA, Dose [Carcinogen]: 20 PPM FOR 8 WK IN DRINKING WATER (STUDY DURATION: 32 WK), Promoter: NONE): 9/25 (36%), 3/19 (16%), 56%, not significant and 14/25 (56%), 1/19 (5%), 91%, p=0.0004
- tumour outcome (control, treated, inhibition, significance) (Carcinogen: 4-NITROQUINOLINE-1-OXIDE [56-57-5], Dose [Inhibitor]: 100 PPM IN DIET FOR 22 WK BEGINNING 1 WK POST LAST CARCINOGEN DOSE (STUDY DURATION: 31 WK), Route [Inhibitor]: ORAL, Species: RAT, Strain/Sex: F344/MALE, Target Tissue: Type of Lesion: TONGUE: SQUAMOUS CELL PAPILLOMA, Dose [Carcinogen]: 20 PPM FOR 8 WK IN DRINKING WATER (STUDY DURATION: 32 WK), Promoter: NONE): 9/25 (36%), 0/20 (0%), 100%, p=0.003 and 14/25 (56%), 1/20 (5%), 91%, p=0.0003
- tumour outcome (control, treated, inhibition, significance) (Carcinogen: 4-NITROQUINOLINE-1-OXIDE [56-57-5], Dose [Inhibitor]: 500 PPM IN DIET FOR 10 WK BEGINNING 1 WK PRIOR TO FIRST CARCINOGEN DOSE (STUDY DURATION: 32 WK), Route [Inhibitor]: ORAL, Species: RAT, Strain/Sex: F344/MALE, Target Tissue: Type of Lesion: TONGUE: SQUAMOUS CELL PAPILLOMA, Dose [Carcinogen]: 20 PPM FOR 8 WK IN DRINKING WATER (STUDY DURATION: 32 WK), Promoter: NONE): 9/25 (36%), 2/20 (10%), 72%, p=0.045 and 14/25 (56%), 0/20 (0%), 100%, p=0.00003
- tumour outcome (control, treated, inhibition, significance) (Carcinogen: 4-NITROQUINOLINE-1-OXIDE [56-57-5], Dose [Inhibitor]: 500 PPM IN DIET FOR 22 WK BEGINNING 1 WK POST LAST CARCINOGEN DOSE (STUDY DURATION: 31 WK), Route [Inhibitor]: ORAL, Species: RAT, Strain/Sex: F344/MALE, Target Tissue: Type of Lesion: TONGUE: SQUAMOUS CELL PAPILLOMA, Dose [Carcinogen]: 20 PPM FOR 8 WK IN DRINKING WATER (STUDY DURATION: 32 WK), Promoter: NONE): 14/25 (56%), 1/20 (5%), 91%, p=0.0003

Compound: CC(C)Cc1ccc(C(C)C(=O)O)cc1 (stereo not drawn)
- tumour outcome (control, treated, inhibition, significance) (Carcinogen: 4-(METHYLNITROSAMINO)-1-(3-PYRIDYL-1-BUTANONE, 64091-91-4, Dose [Inhibitor]: 0, 263 MG/KG IN DIET FOR 25 WK BEGINNING 2 WK PRIOR TO CARCINOGEN TREATMENT (STUDY DURATION: 25 WK), Route [Inhibitor]: ORAL, Species: MOUSE, Strain/Sex: STRAIN-A/FEMALE, Target Tissue: Type of Lesion: FORESTOMACH: TUMOR, Dose [Carcinogen]: 9.1 MG IN DRINKING WATER FOR 7 WK, Promoter: NONE USED): 7/25 (28%), 0/25 (0%), 100%, p<0.01
- tumour outcome (control, treated, inhibition, significance) (Carcinogen: AZOXYMETHANE, 25843-45-2, Dose [Inhibitor]: 0, 400 PPM IN DIET BEGINNING 1 WK PRIOR TO CARCINOGEN TREATMENT FOR DURATION OF STUDY (STUDY DURATION: 54 WK), Route [Inhibitor]: ORAL, Species: RAT, Strain/Sex: F344/MALE, Target Tissue: Type of Lesion: COLON: ADENOCARCINOMA, Dose [Carcinogen]: 15 MG/KG/BW 1/WK FOR 2 WK, Promoter: NONE USED): 58%, 33%, 43%, p<0.05
- tumour outcome (control, treated, inhibition, significance) (Carcinogen: AZOXYMETHANE, 25843-45-2, Dose [Inhibitor]: 0, 200 PPM IN DIET BEGINNING 1 WK PRIOR TO CARCINOGEN TREATMENT FOR DURATION OF STUDY (STUDY DURATION: 54 WK), Route [Inhibitor]: ORAL, Species: RAT, Strain/Sex: F344/MALE, Target Tissue: Type of Lesion: COLON: ADENOCARCINOMA, Dose [Carcinogen]: 15 MG/KG/BW 1/WK FOR 2 WK, Promoter: NONE USED): 58%, 41%, 29%, not calculated
- tumour outcome (control, treated, inhibition, significance) (Carcinogen: AZOXYMETHANE, 25843-45-2, Dose [Inhibitor]: 0, 200 PPM IN DIET BEGINNING 1 WK PRIOR TO CARCINOGEN TREATMENT FOR DURATION OF STUDY (STUDY DURATION: 54 WK), Route [Inhibitor]: ORAL, Species: RAT, Strain/Sex: F344/MALE, Target Tissue: Type of Lesion: COLON: ADENOMA, Dose [Carcinogen]: 15 MG/KG/BW 1/WK FOR 2 WK, Promoter: NONE USED): 6%, 6%, 0%, not calculated
- outcome (Carcinogen: AZOXYMETHANE, 25843-45-2, Dose [Inhibitor]: 0, 400 PPM IN DIET BEGINNING 1 WK PRIOR TO CARCINOGEN TREATMENT FOR DURATION OF STUDY (STUDY DURATION: 54 WK), Route [Inhibitor]: ORAL, Species: RAT, Strain/Sex: F344/MALE, Target Tissue: Type of Lesion: COLON: ADENOMA, Dose [Carcinogen]: 15 MG/KG/BW 1/WK FOR 2 WK, Promoter: NONE USED): 6%, 0,%, 100%, not calculated
